Consider two compounds from ChEMBL document CHEMBL1157091, “An unprecedented biogenetic-type chemical synthesis of 1(15-->11) abeotaxanes from normal taxanes” (J Nat Prod, 2010).

One test deals with MCF7. Description: Cytotoxicity against human MCF7 cells. Format: functional, cell-based.
Another test deals with MDA-MB-231. Description: Cytotoxicity against human MDA-MB-231 cells. In kind it is functional, cell-based.
Test [1] can be described thus: Cytotoxicity against human […] cells. In kind it is cell-based.

What is called IC50 is the concentration that inhibits the measured activity by half. A high value points to a need for much substance.

Bounds are passed on as bounds.

With `C=C1[C@H]2C[C@@H]3C[C@H](OC(C)=O)C(C)=C([C@@H](OC(C)=O)[C@H](OC(C)=O)[C@]2(C)[C@@H](OC(C)=O)C[C@@H]1O)C3(C)C`, the IC50 (with MCF7; in the test with MDA-MB-231; in test [1]) was greater than 50 µM throughout.

Regarding `CC(=O)O[C@H]1C(=O)[C@@]2(C)[C@H]([C@H](OC(=O)c3ccccc3)[C@]3(O)C[C@H](OC(=O)[C@H](O)[C@@H](NC(=O)c4ccccc4)c4ccccc4)C(C)=C1C3(C)C)[C@]1(OC(C)=O)CO[C@@H]1C[C@@H]2O` [PACLITAXEL], the IC50 in test [1] is 27 µM.
